# In patent US20030199671A1, “Binding molecules for Fc-region polypeptides” (priority 2001, published 2003):
# “And” between values parts separate entries of the source, which are not always exact repeats. Identical values can stand only once. Like-named read-outs stand apart in the source and are kept apart here. Positions of bridges follow the written chain, without caps; N, C: chain ends. Residues, ends and D or L forms follow the SMILES beside them. *: point of attachment. 5FAM = O=C1OC2(c3ccc(O)cc3Oc3cc(O)ccc32)c2ccc(C(=O)*)cc21
# Columns and labels:
# [1] = target: T1, human IgG1 (Homo sapiens, UniProt P01857); type: binding; details: Table 9; immobilized peptide, 5.0 mg/ml resin load
# T1 construct: all human subtypes derived from myeloma patients; purchased Calbiochem 400120; host or cells: myeloma patients
# Summary of the method: (§1)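 Read-out is A280 of unbound IgG (1.4 mg/ml extinction coefficient), with percent bound derived against non-filtered or negative controls. Targets were incubated with immobilized peptides in PBST or TBST for 1-1.5 h at room temperature. Hydrolyzed Sepharose and immobilized Protein A serve as negative and positive controls.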
# [2] = test system: bovine IgG; type: binding; details: Table 11; unfractionated IgG
# Summary of the method: (§2)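 Unfractionated IgG in PBST (10 mM phosphate, 150 mM NaCl, 0.01% Tween 20, pH 7.2) or TBST (50 mM Tris, pH 7.5) was batch-incubated with immobilized peptide resin for 1-1.5 h at room temperature. Unbound IgG was quantitated by A280, and percent bound was taken by subtraction from control values.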
# [3] = target: T2, human IgG2 (Homo sapiens, UniProt P01859); type: binding; details: Table 9; immobilized peptide, 5.0 mg/ml resin load
# T2 construct: all human subtypes derived from myeloma patients; purchased Calbiochem 400122; host or cells: myeloma patients
# Summary of the method: as §1
# [4] = test system: goat IgG; type: binding; details: Table 11; unfractionated IgG
# Summary of the method: as §2
# [5] = test system: mouse IgG; type: binding; details: Table 11; unfractionated IgG
# Summary of the method: as §2
# [6] = test system: human IgG; type: binding; details: Table 11; unfractionated IgG
# Summary of the method: as §2
# [7] = target: T3, human plasma IgG4 (Homo sapiens, UniProt P01861); experiment: Fluorescence anisotropy binding, Oregon Green labeled peptide
# T3 construct: the individual human plasma IgG isoforms: IgG1, IgG2, IgG3, or IgG4; purchased Calbiochem; host or cells: human plasma
# Method: (§3) Peptides were synthesized by BACHEM and then Oregon Green labeled and HPLC purified. Binding studies were performed using human plasma IgG isoforms: IgG1, IgG2, IgG3, and IgG4, obtained from Calbiochem.
# (§4) Binding studies were carried out at either pH 4.0, 7.5, or 9.5, with or without salt in the following buffers:
# (§5) 2) 10 mM Sodium Citrate, 500 mM Sodium Chloride, 0.01% Tween 20, pH 4.0;
# (§6) 4) […], 500 mM Sodium Chloride, 0.01% Tween 20, pH 7.5;
# (§7) 5) 10 mM Sodium Bicarbonate, 0.01% Tween 20, pH 9.5;
# (§8) 6) 10 mM Sodium Bicarbonate, 500 mM Sodium Chloride, 0.01% Tween 20, pH 9.5; or […]
# [8] = target: T4, human plasma IgG3 (Homo sapiens, UniProt P01860); experiment: as above
# T4 construct: the individual human plasma IgG isoforms: IgG1, IgG2, IgG3, or IgG4; purchased Calbiochem; host or cells: human plasma
# Method: as §3, §4, §5, §6, §7, §8
# [9] = target: T5, human plasma IgG2 (Homo sapiens, UniProt P01859); experiment: as above
# T5 construct: the individual human plasma IgG isoforms: IgG1, IgG2, IgG3, or IgG4; purchased Calbiochem; host or cells: human plasma
# Method: as §3, §4, §5, §6, §7, §8
# [10] = target: T6, human plasma IgG1 (Homo sapiens, UniProt P01857); experiment: as above
# T6 construct: the individual human plasma IgG isoforms: IgG1, IgG2, IgG3, or IgG4; purchased Calbiochem; host or cells: human plasma
# Method: as §3, §4, §5, §6, §7, §8
# [11] = target: IgG3 (Homo sapiens, UniProt P01860); type: binding; design: all human subtypes derived from myeloma patients; purchased Calbiochem 400124; host or cells: myeloma patients; details: Table 9; immobilized peptide, 5.0 mg/ml resin load
# Method: In addition, the following targets, all unfractionated IgGs, were also evaluated with selected immobilized peptides for species specificity characterization in a similar format: human IgG, goat IgG, bovine IgG, and mouse IgG (Sigma, product nos. I4506, I5256, I5506, and I15381, respectively). In addition, 10 μl aliquots of hydrolyzed NHS-activated Sepharose 4 Fast Flow (Amersham Pharmacia Biotech, product no. 17-0906-01) and immobilized recombinant Protein A (RepliGen Corp., product no. IPA-400) were also assayed as negative and positive controls. IgG targets were diluted into 10 mM phosphate buffer containing 150 mM NaCl and 0.01% Tween 20, pH 7.2 (PBST) or 50 mM Tris buffer containing, 150 mM NaCl and 0.01% Tween-20, pH 7.5 (TBST). Batch (static) binding and elution studies were conducted in a 96-well assay filterplate (Millipore MultiScreen-HV, with 0.45 μm Durapore membrane, product no. MAHVN4510). The target was allowed to incubate with the resin for 1-1.5 hours with shaking at room temperature. Unbound target was collected by centrifugation of samples from the assay plate directly into a low-UV absorbing 96-well collection plate (Costar, product no. 3635 or Greiner, product no. 655801). The unbound target was then quantitated by reading the absorbance at 280 nm (normalized to 1 cm pathlength, 1.4 mg/ml A280 extinction coefficient) of the collection plate on a microplate spectrophotometer (Molecular Devices Corp., SPECTRAmax PLUS) against a buffer blank.
# The percentage bound target was determined by subtracting the mass determined as unbound from the corresponding condition's control values (control non-filtered added directly to the collection plate and/or the negative control). The assay plate was washed (3×) with 200 μl of binding buffer by vacuum filtration followed by addition of 100 μl of various elution conditions (e.g.: 0.1 M sodium bicarbonate buffer, pH 8.5 and/or 0.1 M sodium citrate buffer, pH 4.0). After a 30-60 minute incubation with shaking at room temperature, the eluted target was collected by centrifugation of the assay plate into another collection plate and quantitated in a similar manner. Percent elution of total load was then determined to characterize elution recovery efficiency under various conditions. The assay plate was then washed (3×) with 200 μl of binding buffer by vacuum filtration followed by addition of a resin cleaning condition (e.g., 0.1M CAPS buffer (3-[Cyclohexylamino]-1-propane-sulfonic acid), pH 11.5, to regenerate the resin for re-use. Percentage mass balance determination was calculated to be 90-100% on average.
# [12] = target: IgG4 (Homo sapiens, UniProt P01861); type: binding; design: all human subtypes derived from myeloma patients; purchased Calbiochem 400126; host or cells: myeloma patients; details: Table 9; immobilized peptide, 5.0 mg/ml resin load
# Summary of the method: as §1
# [13] = target: Fc (mixture of human plasma IgG isoforms); experiment: Fluorescence anisotropy binding, fluorescein-labeled peptide; details: 2 nM labeled peptide; 50 mM Tris-HCl, 200 mM NaCl, pH 8.0, 0.01% Tween 20
# Method: (§9) Peptides were synthesized by BACHEM Bioscience, Inc., (King of Prussia, Pa.), fluorescein labeled and purified by HPLC. Binding studies were performed using either a mixture of human plasma IgG isoforms (the Fc target) or the individual human plasma IgG isoforms: IgG1, IgG2, IgG3, or IgG4. All Fc target proteins were obtained from Calbiochem.
# (§10) All measurements were performed in 384 well microplates with 20 nM fluorescein-labeled peptide and various concentrations of the IgG isoform in a volume of between 10 and 20 μl using a Tecan Polarion fluorescence polarization plate reader. All binding buffers included 0.01% (v/v) Tween 20 to prevent peptide adsorption to the microplate. The binding mixture was equilibrated for 10 minutes in the microplate at 30° C. prior to performing the measurement.
# (§11) Peptides were synthesized, fluorescein-labeled and HPLC purified as described above. Binding studies were performed using either a mixture of human plasma IgG isoforms (the Fc protein) or the individual human plasma IgG isoforms: IgG1, IgG2, IgG3, or IgG4.
# (§12) Measurements were performed in 384-well microplates with 2 nM fluorescein-labeled peptide and a varied concentration of the IgG isoform target in a volume of 10 μl using a Tecan Polarion fluorescence polarization plate reader. The Fc binding buffer was 50 mM Tris-HCl, 200 mM NaCl, pH 8.0, 0.01% Tween 20. The IgG binding buffer was PBS with 0.01% Tween 20. The binding mixtures were equilibrated for 10 minutes in the microplate at 30° C. prior to performing the measurements.
# [14] = target: T4, human plasma IgG3; experiment: as above; details: 2 nM labeled peptide; PBS with 0.01% Tween 20
# Method: as §9, §10, §11, §12
# T3 sequence (P01861 1-327 isoform P01861-1): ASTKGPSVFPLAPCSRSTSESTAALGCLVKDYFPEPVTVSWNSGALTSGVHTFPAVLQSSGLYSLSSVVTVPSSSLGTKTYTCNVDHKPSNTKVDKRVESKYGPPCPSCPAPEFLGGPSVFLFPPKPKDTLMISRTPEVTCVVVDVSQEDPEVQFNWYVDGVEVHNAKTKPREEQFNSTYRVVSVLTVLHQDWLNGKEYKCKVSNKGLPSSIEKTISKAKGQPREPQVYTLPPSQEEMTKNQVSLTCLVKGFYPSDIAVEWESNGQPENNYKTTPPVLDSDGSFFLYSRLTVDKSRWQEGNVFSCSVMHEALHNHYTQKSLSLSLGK
# T5 sequence (P01859 1-326 isoform P01859-1): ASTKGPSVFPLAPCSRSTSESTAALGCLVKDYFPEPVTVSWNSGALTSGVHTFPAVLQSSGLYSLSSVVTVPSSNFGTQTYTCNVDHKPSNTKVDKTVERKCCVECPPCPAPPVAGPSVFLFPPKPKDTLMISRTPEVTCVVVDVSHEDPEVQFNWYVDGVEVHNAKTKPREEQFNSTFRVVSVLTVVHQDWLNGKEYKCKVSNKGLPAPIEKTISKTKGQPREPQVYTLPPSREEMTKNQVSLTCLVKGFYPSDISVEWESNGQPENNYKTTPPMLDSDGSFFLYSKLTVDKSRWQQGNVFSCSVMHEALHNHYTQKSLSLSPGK
# T4 sequence (P01860 1-377 isoform P01860-1): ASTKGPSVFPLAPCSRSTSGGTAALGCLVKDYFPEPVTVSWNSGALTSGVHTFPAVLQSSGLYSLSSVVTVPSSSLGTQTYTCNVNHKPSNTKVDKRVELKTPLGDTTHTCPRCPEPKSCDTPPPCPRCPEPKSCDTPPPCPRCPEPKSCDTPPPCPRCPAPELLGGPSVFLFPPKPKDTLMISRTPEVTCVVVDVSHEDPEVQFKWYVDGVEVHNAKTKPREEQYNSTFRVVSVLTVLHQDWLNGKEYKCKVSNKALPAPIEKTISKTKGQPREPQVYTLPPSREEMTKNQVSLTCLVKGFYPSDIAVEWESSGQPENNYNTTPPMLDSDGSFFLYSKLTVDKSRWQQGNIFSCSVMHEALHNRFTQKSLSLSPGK
# T6 sequence (P01857 1-330 isoform P01857-1): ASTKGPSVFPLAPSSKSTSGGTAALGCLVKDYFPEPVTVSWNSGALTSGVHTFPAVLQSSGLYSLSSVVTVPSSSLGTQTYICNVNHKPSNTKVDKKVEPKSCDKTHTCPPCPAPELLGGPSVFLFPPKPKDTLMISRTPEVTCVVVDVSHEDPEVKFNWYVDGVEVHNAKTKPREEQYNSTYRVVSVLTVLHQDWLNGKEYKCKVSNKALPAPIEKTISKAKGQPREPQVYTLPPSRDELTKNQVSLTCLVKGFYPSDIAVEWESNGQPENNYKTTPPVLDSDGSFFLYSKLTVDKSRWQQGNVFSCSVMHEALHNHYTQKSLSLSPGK
# Chain of IgG4 (P01861 1-327 isoform P01861-1): as the sequence (P01861 1-327 isoform P01861-1) above
# T2 sequence (P01859 1-326 isoform P01859-1): as the sequence (P01859 1-326 isoform P01859-1) above
# Chain of IgG3 (P01860 1-377 isoform P01860-1): as the sequence (P01860 1-377 isoform P01860-1) above
# T1 sequence (P01857 1-330 isoform P01857-1): as the sequence (P01857 1-330 isoform P01857-1) above
smiles,measurement,setting,value
CC(=O)N[C@@H](C)C(=O)NCC(=O)N[C@H](C(=O)N[C@@H](Cc1ccc(O)cc1)C(=O)N[C@@H](Cc1c[nH]c2ccccc12)C(=O)N[C@H]1CSSC[C@@H](C(=O)N[C@@H](CC(=O)O)C(=O)N2CCC[C@H]2C(=O)N[C@@H](C)C(=O)N2CCC[C@H]2C(=O)NCC(=O)N2CCC[C@H]2C(=O)N[C@@H](CCC(=O)O)C(=O)NCC(=O)NCC(=O)NCC(=O)N[C@@H](CCCCN)C(N)=O)NC(=O)[C@@H]2CCCN2C(=O)[C@H](CC(C)C)NC(=O)[C@H](CCC(=O)O)NC(=O)[C@H](Cc2c[nH]c3ccccc23)NC(=O)[C@H](Cc2ccccc2)NC(=O)[C@H]([C@@H](C)O)NC1=O)[C@@H](C)O [DX404],"% IgG Capture - Batch Binding, Human IgG1",[1],38%
same,"% IgG Capture - Batch Binding, Bovine IgG",[2],0%
same,"% IgG Capture - Batch Binding, Human IgG2",[3],11%
same,"% IgG Capture - Batch Binding, Goat IgG",[4],0%
same,"% IgG Capture - Batch Binding, Mouse IgG",[5],2%
same,"% IgG Capture - Batch Binding, Human IgG",[6],30%
same,Kd,"[7]; 10 nM Tris-HCl, 500 mM Sodium Chloride, pH 7.5, read-out: KD (μM) IgG4 pH 7.5 + salt",> 10 µM
same,Kd,"[7]; 10 mM Sodium Bicarbonate, 500 mM Sodium Chloride, pH 9.5, read-out: KD (μM) IgG4 pH 9.5 + salt",> 10 µM
same,Kd,"[7]; 10 mM Sodium Bicarbonate, pH 9.5, read-out: KD (μM) IgG4 pH 9.5 − salt",> 10 µM
same,Kd,"[7]; 10 mM Sodium Citrate, 500 mM Sodium Chloride, pH 4.0, read-out: KD (μM) IgG4 pH 4.0 + salt",> 10 µM
same,Kd,"[7]; 10 mM Sodium Citrate, pH 4.0, read-out: KD (μM) IgG4 pH 4.0 − salt",> 10 µM
same,Kd,"[7]; 10 mM Tris-HCl, pH 7.5, read-out: KD (μM) IgG4 pH 7.5 − salt",> 10 µM
same,Kd,"[8]; 10 mM Sodium Bicarbonate, 500 mM Sodium Chloride, pH 9.5, read-out: KD (μM) IgG3 pH 9.5 + salt",> 10 µM
same,Kd,"[8]; 10 mM Sodium Bicarbonate, pH 9.5, read-out: KD (μM) IgG3 pH 9.5 − salt",> 10 µM
same,Kd,"[8]; 10 mM Sodium Citrate, 500 mM Sodium Chloride, pH 4.0, read-out: KD (μM) IgG3 pH 4.0 + salt",0.2 µM
same,Kd,"[8]; 10 mM Sodium Citrate, pH 4.0, read-out: KD (μM) IgG3 pH 4.0 − salt",~0.01 µM and 0.01 µM
same,Kd,"[9]; 10 nM Tris-HCl, 500 mM Sodium Chloride, pH 7.5, read-out: KD (μM) IgG2 pH 7.5 + salt",> 10 µM
same,Kd,"[9]; 10 mM Sodium Bicarbonate, 500 mM Sodium Chloride, pH 9.5, read-out: KD (μM) IgG2 pH 9.5 + salt",> 10 µM
same,Kd,"[9]; 10 mM Sodium Bicarbonate, pH 9.5, read-out: KD (μM) IgG2 pH 9.5 − salt",> 10 µM
same,Kd,"[9]; 10 mM Sodium Citrate, 500 mM Sodium Chloride, pH 4.0, read-out: KD (μM) IgG2 pH 4.0 + salt",~2 µM and 2 µM
same,Kd,"[9]; 10 mM Sodium Citrate, pH 4.0, read-out: KD (μM) IgG2 pH 4.0 − salt",~2 µM
same,Kd,"[10]; 10 nM Tris-HCl, 500 mM Sodium Chloride, pH 7.5, read-out: KD (μM) IgG1 pH 7.5 + salt",> 10 µM
same,Kd,"[10]; 10 mM Sodium Bicarbonate, 500 mM Sodium Chloride, pH 9.5, read-out: KD (μM) IgG1 pH 9.5 + salt",> 10 µM
same,Kd,"[10]; 10 mM Sodium Bicarbonate, pH 9.5, read-out: KD (μM) IgG1 pH 9.5 − salt",> 10 µM
same,Kd,"[10]; 10 mM Sodium Citrate, 500 mM Sodium Chloride, pH 4.0, read-out: KD (μM) IgG1 pH 4.0 + salt",~2 µM and 2 µM
same,Kd,"[10]; 10 mM Sodium Citrate, pH 4.0, read-out: KD (μM) IgG1 pH 4.0 − salt",~2 µM
same,"% IgG Capture - Batch Binding, Human IgG3",[11],74%
same,"% IgG Capture - Batch Binding, Human IgG4",[12],10%
CC(=O)NCC(=O)N[C@@H](CC(=O)O)C(=O)N[C@@H](CCCNC(=N)N)C(=O)N[C@@H](CCCNC(=N)N)C(=O)N[C@@H](C)C(=O)N[C@H]1CSSC[C@@H](C(=O)N[C@@H](C)C(=O)NCC(=O)N[C@@H](Cc2c[nH]cn2)C(=O)N[C@@H](CCC(=O)O)C(=O)N2CCC[C@H]2C(=O)NCC(=O)N2CCC[C@H]2C(=O)N[C@@H](CCC(=O)O)C(=O)NCC(=O)NCC(=O)NCC(=O)N[C@@H](CCCCNC(=O)c2ccc3c(c2)C(=O)OC32c3ccc(O)cc3Oc3cc(O)ccc32)C(N)=O)NC(=O)[C@H](Cc2c[nH]c3ccccc23)NC(=O)[C@H](C(C)C)NC(=O)[C@H](CC(C)C)NC(=O)[C@H](C)NC(=O)CNC(=O)[C@H](CO)NC(=O)[C@H](Cc2c[nH]c3ccccc23)NC(=O)[C@H](CC(=O)O)NC(=O)[C@H](CCCNC(=N)N)NC(=O)[C@H](CO)NC1=O [DX301] (Ac-GDRRACSRDWSGALVWCAGHEPGPEGGGK(5FAM)-NH2; disulfide 6-17),Kd,[13],6.8 ± 4.3 µM
same,KD (μM) IgG3,[14],No binding
